Results on 1 substance are retold here after patent US5736161A, “Pharmaceutical preparation for improving the bioavailability of drugs which are difficult to absorb and a procedure for obtaining it” (Lipotec S.A., priority 1993, dated 1998).

For one data set, the system named is Xa. Nature of the data set: Bioavailability test in dogs: anti-Xa activity in the plasma, ex-vivo chromogenic test (Coatest). Further details: species or system dog. As to the method: Bioavailability tests on the capsules prepared according to examples 1 and 2.
(§1) Bioavailability studies in which the animals received 40 mg of heparin by the oral route or 10 mg by the subcutaneous route over a period of three days.
(§2) Four dogs (2 for each treatment), each approximately 15 kg in weight.
A bioassay (anti-Xa activity) was used to measure the concentrations in the plasma.
The anti-Xa activity in the plasma was measured ex-vivo using a chromogenic test using a commercially available kit (Coatest) and expressed in IU/ml. The values were calculated from a calibration curve obtained in-vitro by adding different quantities of SLMWH to dog plasma.
The blood was extracted from the femoral vein. Starting on the second day of experiments samples were collected before and 1, 2, 3, 4 and 6 hours after oral or subcutaneous administration, sodium citrate was added to the samples (9 vol. sangre:1 vol. 3.8% sodium citrate) followed by centrifuging at 1200 rpm for 20 minutes at 4° C. The plasma was separated immediately and the anti-Xa activity was tested.

Data set [1] is described as follows: Urine analysis by HPLC (molecular weight) after chondroitinase AC treatment. The class given is in vivo, dog. The settings on record: chondroitinase AC treated, route not distinguished. As for the experimental part: as §1, §2
(§3) The urine samples were treated with chondroitinase AC to eliminate the endogenous chondroitins. The residue was analyzed by means of proton NMR and HPLC (to determine the molecular weight).

A short description of data set [2]: Urine analysis by proton NMR after chondroitinase AC treatment. The settings on record: chondroitinase AC treated, route not distinguished. It counts as in vivo, dog. As for the experimental part: as §1, §2, §3
Setting [3] is: oral, capsules (examples 1 and 2), 40 mg heparin, second day.
Setting [4] is: subcutaneous, 10 mg heparin, second day.

Regarding “sodium heparin of low molecular weight [SLMWH]”, the “levels of heparin in the blood (anti-Xa activity method)” value was “detectable” in the data set on Xa (setting [3]) and “detectable” with Xa (subcutaneous injection, 10 mg heparin, second day). The “peak values of anti-Xa activity in plasma” value in the data set with Xa (setting [3]) is reported as 0.2-0.4 IU/ml; with Xa (oral, capsules (examples 1 and 2), 40 mg heparin, third day, 1 and 2 hours after administration), 0.8-1.2 IU/ml; in the data set on Xa (setting [4]), 0.2-0.4 IU/ml; in the data set with Xa (subcutaneous, 10 mg heparin, third day, 1 and 2 hours after administration) it was 0.8-1.2 IU/ml. For the same substance, the “significant anti-Xa activity in plasma after 6 hours” value was > 0.3 IU/ml in the data set with Xa (oral, capsules (examples 1 and 2), 40 mg heparin, third day); > 0.3 IU/ml with Xa (subcutaneous, 10 mg heparin, third day). In addition, the “significant continued anti-Xa activity (>0.1 IU/ml) for 3 hours” value in the data set on Xa (oral, capsules, 40 mg heparin, second day, not found after oral) was “only after subcutaneous administration”. Also, the “duration of significant continued anti-Xa activity (>0.1 IU/ml) in plasma” value in the data set on Xa (setting [4]) was 3 h. Further, in the data set with Xa (subcutaneous, 10 mg heparin, second day, for 3 hours), the “significant continued anti-Xa activity in plasma” value is reported as > 0.1 IU/ml. Further, the “basal values of anti-Xa activity before the final dose” value in the data set with Xa (third day vs previous day, oral or subcutaneous, route not distinguished) is “significantly higher than the corresponding values on the previous day”. For the same substance, the “molecular weight of the urine residue (HPLC)” value in data set [1] turned out to be 5 kDaltons. In addition, the “H1-NMR test of urine” value in data set [2] was “presence of partially disulphated heparin”.
